These results are taken from paper PMC11522691, “Structure of the turnover-ready state of an ancestral respiratory complex I” (Nature Communications, 2024).

The target of this assay is T1, P. denitrificans complex I (Pd-CI, Pd-CI-ND), ubiquinone-binding site (Paracoccus denitrificans, UniProt A1B487+A1B495+A1B497).
T1 construct: gene nuoH; native 18-subunit complex from P. denitrificans membranes, His6 tag on Nqo5 (NDUFS3), DDM-purified, reconstituted in MSP2N2 phospholipid nanodiscs; NDUFS2-Arg65 dimethylated; ND3 N-formylMet; with NADH-quinone oxidoreductase subunit 1 (subunit F); NADH-quinone oxidoreductase subunit 2 (subunit E); NADH-quinone oxidoreductase subunit 3 (subunit G); NADH-quinone oxidoreductase subunit 5 (subunit C); NADH-quinone oxidoreductase subunit 7 (subunit A); NADH-quinone oxidoreductase subunit 9 (subunit I); NADH-quinone oxidoreductase subunit 10 (subunit J); NADH-quinone oxidoreductase subunit 11 (subunit K); NADH-quinone oxidoreductase subunit 12 (subunit L); NADH-quinone oxidoreductase subunit 13 (subunit M); NADH-quinone oxidoreductase subunit 14 (subunit N); NADH dehydrogenase [ubiquinone] iron-sulfur protein 4 homologue; NADH dehydrogenase [ubiquinone] iron-sulfur protein 6 homologue; NADH dehydrogenase [ubiquinone]; 1 alpha subcomplex subunit 12 homologue; Protein-L-isoaspartate O-methyltransferase
T1 sequence (A1B497 whole entry): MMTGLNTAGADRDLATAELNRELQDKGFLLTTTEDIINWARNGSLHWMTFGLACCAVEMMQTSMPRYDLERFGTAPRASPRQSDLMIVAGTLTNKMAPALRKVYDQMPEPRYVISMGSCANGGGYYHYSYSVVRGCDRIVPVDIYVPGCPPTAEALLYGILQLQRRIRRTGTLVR
T1 sequence (A1B495 whole entry): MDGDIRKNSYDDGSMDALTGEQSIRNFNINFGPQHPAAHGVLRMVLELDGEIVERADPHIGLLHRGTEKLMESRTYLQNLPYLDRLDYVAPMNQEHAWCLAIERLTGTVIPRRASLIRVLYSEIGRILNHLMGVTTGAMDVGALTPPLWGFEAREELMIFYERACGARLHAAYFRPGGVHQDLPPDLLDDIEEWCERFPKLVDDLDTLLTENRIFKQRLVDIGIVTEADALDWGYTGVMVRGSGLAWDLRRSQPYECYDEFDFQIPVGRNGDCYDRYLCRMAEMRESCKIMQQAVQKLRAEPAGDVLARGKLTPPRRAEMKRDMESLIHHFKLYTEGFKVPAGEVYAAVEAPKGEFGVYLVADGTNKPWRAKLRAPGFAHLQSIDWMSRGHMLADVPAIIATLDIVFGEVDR
T1 sequence (A1B487 whole entry): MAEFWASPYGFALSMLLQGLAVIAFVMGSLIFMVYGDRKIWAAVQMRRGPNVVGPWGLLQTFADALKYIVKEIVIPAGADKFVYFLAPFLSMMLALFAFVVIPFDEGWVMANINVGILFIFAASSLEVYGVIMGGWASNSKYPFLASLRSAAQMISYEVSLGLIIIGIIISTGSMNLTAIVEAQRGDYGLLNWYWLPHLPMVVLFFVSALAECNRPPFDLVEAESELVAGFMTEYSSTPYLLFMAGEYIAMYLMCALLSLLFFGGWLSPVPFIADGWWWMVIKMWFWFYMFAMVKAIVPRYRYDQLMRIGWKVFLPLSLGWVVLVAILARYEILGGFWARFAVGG
Nature of the assay: cryo-EM structure of the complex, […] Å. Particulars: closed resting state, oxidised; headgroup partially inserted near ND1-Arg38, Trp41, Met244, Lys295 and NDUFS7-Arg77; nanodiscs with added Q10.

For `COC1=C(OC)C(=O)C(C/C=C(\C)CC/C=C(\C)CC/C=C(\C)CC/C=C(\C)CC/C=C(\C)CC/C=C(\C)CC/C=C(\C)CC/C=C(\C)CC/C=C(\C)CCC=C(C)C)=C(C)C1=O` [ubiquinone-10], the “cryo-EM structure of the complex, 2.3 Å” value was “Density in the central polar region of the channel has been assigned to a partially inserted ubiquinone-10”.
